Data: patent US7867979B2, “Drug composition for treating 2 type diabetes and diabetic chronicity complications” (Hainan Deze Drug Research Co., Ltd., priority 2006, dated 2011)
Like-named read-outs stand apart in the source and are kept apart here.

How the values were obtained:
aldose reductase (AR) = biological target: T1, aldose reductase (AR) (Rattus norvegicus, UniProt P07943); experiment: Activity of aldose reductase (AR) of lens in GK rats; assay type: in vivo, Goto-Kakizaki rats (GK); settings: oral daily 12 weeks, specific activity, in U/mg protein; for AR activity of lens NADH (0.1 mmol/L): NADH 0.1 mmol/L system; for AR activity of lens NADPH (0.1 mmol/L): NADPH 0.1 mmol/L system
T1 construct: from tissue; host or cells: lens of GK (Goto-Kakizaki) and Wistar rats
Description: GK rats control group (n=10); mangiferin groups (10, 30, 200 mg/kg, each group 10 rats); berberine groups (10, 20, 150 mg/kg, each group 10 rats); composition group 1[[mangiferin (10 mg/kg)+berberine (10 mg/kg)], 10 rats]; composition group 2[[mangiferin (200 mg/kg)+berberine (150 mg/kg)], 10 rats]. Wistar rats are normal control group (10 rats). GK rats control group and Wistar rats group were given saline. The other groups were given test drugs. Test samples were administrated orally at the same time every day for 12 weeks. […] At the End of the experiment, the left side lens of rats was taken, then these lenses were added into glycerol and put into refrigerator (−80° C.□) to preserve to determine AR activity. The determination method of AR activity refer to Maragoudakis's method and change slightly, that is: the activity of enzyme is indicated by the record of the absorbance of NADPH in 340 nm decline IOU. […] The second reaction system is 0.1 mmol/L NADH instead of NADPH, the rest of the reagent is same as one of the first response system. The activity of enzyme and the protein content in tissue homogenate are determined at the same time. a unit enzyme activity is indicated by the quantity of the enzyme that produce 1 μmol NADP^+ (or NDA^+) in one minute. […] The results have been calculated as mean±SD ( x±SD) and the comparisons of the data have been done by t-test. There are ten rats in every group. GK rats control group and wistar rats group were given saline. The other groups were given test drugs. Test samples were administrated orally at the same time every day for 12 weeks. The measurements are as same as the above experiment.

Propyl dialdehyde (MDA) = Propyl dialdehyde (MDA) in kidney tissue homogenate of GK rats; assay type: in vivo, Goto-Kakizaki rats (GK); settings: oral daily 12 weeks
Description: GK rats control group (n=10); mangiferin groups (10, 30, 200 mg/kg, each group 10 rats); berberine groups (10, 20, 150 mg/kg, each group 10 rats); composition group 1[[mangiferin (10 mg/kg)+berberine (10 mg/kg)], 10 rats]; composition group 2[[mangiferin (200 mg/kg)+berberine (150 mg/kg)], 10 rats]. Wistar rats are normal control group (10 rats). GK rats control group and Wistar rats group were given saline. The other groups were given test drugs. Test samples were administrated orally at the same time every day for 12 weeks. 3.3.1 Preparation of tissue homogenate: Rats were killed by femoral artery bloodletting after administration of the rats for 12-weeks. Kidney tissue of the rats were taken, the blood of kidney tissue were washed with cooling saline (4° C.), then the remnant water was absorbed with filter paper, the kidney tissue was weighed. Per gram kidney tissue was added into 10 ml saline, which was put in homogenized machine (10,000 r/min, 10 seconds, 3rd), 10% tissue homogenate was prepared, the tissue homogenate was centrifuged (4000 r/min) for 10 minutes to get supernatant, the supernatant was saved in −20° C. for determination. 3.3.2.2 Propyl dialdehyde (MDA): MDA is determined by TBA, the test box was bought from Nanjing Jiancheng Bioengineering Research Institute. […] The results have been calculated as mean±SD ( x±SD) and the comparisons of the data have been done by t-test. There are ten rats in every group. GK rats control group and wistar rats group were given saline. The other groups were given test drugs. Test samples were administrated orally at the same time every day for 12 weeks. The measurements are as same as the above experiment.

[1] = Pharmacokinetics of the composition after oral administration; assay type: in vivo; settings: rats, serum; for AUC(0-inf) / Cmax: rat
Description: Mangiferin is suspended in 1% carboxymethyl cellulose sodium solution, the concentration of mangiferin is 25 mg/mL (Sample A).
Berberine is suspended in 1% carboxymethyl cellulose sodium solution, the concentration of berberine is 25 mg/mL (Sample B). The composition which is composed of mangiferin and berberine in the ratio of 1:4 is suspended in 1% carboxymethyl cellulose sodium solution, the concentration of the composition is 50 mg/mL (Sample C).
All rats were fasted for 16 hours and drunk water freely. The rats are oral administrated respectively sample A (40 mg/kg), sample B (160 mg/kg) and sample C (200 mg/kg). From the rats, 0.4 ml blood samples were taken respectively at the time of 5 minutes before oral administrated and 0 h, 1 h, 2 h, 3 h, 4 h, 5 h, 6 h, 8 h, 10 h, 12 h, 15 h, and 24 h after oral administrated. These blood samples were put into centrifuge tube containing heparin, then were centrifuged for 10 minutes, the serum is obtained.
Serum samples are taken accurately 100 μL into centrifuge tubes, then 400 μL acetonitrile-acetic acid (9:1) is added into centrifuge tubes. The samples are whorled for 1.5 minutes, and then the samples are centrifuged 3000 r/min for 10 minutes. The supernatant was put into clear tube, dried by nitrogen, 100 μL mobile phase were put into the remnants, whorled for 1.5 minutes, then centrifuged 3000 r/min for 10 minutes. The Supernatant was put into sample bottle. All the samples are determined by HPLC. Injection volume is 20 μL.
4.1 Apparatus: Angilent 1100 HPLC (American Agilent Co.): include G1312A dual pump and G1313A Auto-Sampler.
Chromatographic column: discover ODS column (250 mm×6 mm, 5 μm);
The mobile phase: methanol-0.1% H3PO4 water.
Velocity of flow: 1.0 ml/min.
Detection Wavelength: 264 nm.

In the case of O=c1c2cc(O)c(O)cc2oc2cc(O)c([C@@H]3O[C@H](CO)[C@@H](O)[C@H](O)[C@H]3O)c(O)c12 [Mangiferin], the “AR activity of lens NADH (0.1 mmol/L)” value (aldose reductase (AR); 10 mg/kg) is reported as 2.89 ± 0.69, the “AR activity of lens NADPH (0.1 mmol/L)” value (aldose reductase (AR); 10 mg/kg) is reported as 5.36 ± 2.17 and the “AR activity of lens NADH (0.1 mmol/L)” value (aldose reductase (AR); 30 mg/kg) is reported as 1.64 ± 0.42. The “AR activity of lens NADPH (0.1 mmol/L)” value (aldose reductase (AR); 30 mg/kg) was 3.05 ± 0.59, the “AR activity of lens NADH (0.1 mmol/L)” value (aldose reductase (AR); 200 mg/kg) was 0.94 ± 0.45 and the “AR activity of lens NADPH (0.1 mmol/L)” value (aldose reductase (AR); 200 mg/kg) was 1.87 ± 0.51. The “Measurements about oxidation MDA” value (Propyl dialdehyde (MDA); 10 mg/kg) was 4.41 ± 0.87 nmol/mg pro, the “Measurements about oxidation MDA” value (Propyl dialdehyde (MDA); 30 mg/kg) was 3.48 ± 0.47 nmol/mg pro and the “Measurements about oxidation MDA” value (Propyl dialdehyde (MDA); 200 mg/kg) was 2.75 ± 0.48 nmol/mg pro. For the same compound, the AUC(0-inf) ([1]; sample A 40 mg/kg or sample C (1:4) 200 mg/kg, read-out: AUC0-∞ of mangiferin) was 1200 ± 391 µg·h/mL, the Cmax ([1]; sample A 40 mg/kg or sample C (1:4) 200 mg/kg, read-out: Cmax of mangiferin) was 18.6 ± 1.5 µg/mL and the T1/2β of mangiferin ([1]; sample A 40 mg/kg or sample C (1:4) 200 mg/kg) was 4.3 ± 0.4 h.
For COc1ccc2cc3[n+](cc2c1OC)CCc1cc2c(cc1-3)OCO2 [Berberine], the “AR activity of lens NADH (0.1 mmol/L)” value (aldose reductase (AR); 10 mg/kg) was 2.98 ± 0.60, the “AR activity of lens NADPH (0.1 mmol/L)” value (aldose reductase (AR); 10 mg/kg) was 5.64 ± 2.19 and the “AR activity of lens NADH (0.1 mmol/L)” value (aldose reductase (AR); 20 mg/kg) was 1.32 ± 0.37. For the same compound, the “AR activity of lens NADPH (0.1 mmol/L)” value (aldose reductase (AR); 20 mg/kg) was 2.28 ± 0.51, the “AR activity of lens NADH (0.1 mmol/L)” value (aldose reductase (AR); 150 mg/kg) was 0.94 ± 0.45 and the “AR activity of lens NADPH (0.1 mmol/L)” value (aldose reductase (AR); 150 mg/kg) was 1.87 ± 0.51. The “Measurements about oxidation MDA” value (Propyl dialdehyde (MDA); 10 mg/kg) was 4.39 ± 0.90 nmol/mg pro, the “Measurements about oxidation MDA” value (Propyl dialdehyde (MDA); 20 mg/kg) was 3.51 ± 0.46 nmol/mg pro and the “Measurements about oxidation MDA” value (Propyl dialdehyde (MDA); 150 mg/kg) was 2.76 ± 0.40 nmol/mg pro. For the same compound, the AUC(0-inf) ([1]; sample B 160 mg/kg or sample C (1:4) 200 mg/kg, read-out: AUC0-∞ of berberine) was 3440 ± 250 µg·h/mL, the Cmax ([1]; sample B 160 mg/kg or sample C (1:4) 200 mg/kg, read-out: Cmax of berberine) was 54.1 ± 2.6 µg/mL and the T1/2β of berberine ([1]; sample B 160 mg/kg or sample C (1:4) 200 mg/kg) was 3.5 ± 0.3 h.
